# pIC50: −log10 of the molar value.
# Key:
# Assay type in all cases: in vitro ADME
# hOCT2 = biological target: T1, hOCT2 (Homo sapiens, UniProt O15244); assay: Substrates uptake assay, S2-OCT2 cells (14C-TEA); conditions: 14C-TEA 5 µM, 5 min
# T1 construct: host or cells: S2-OCT2
# T1 sequence (O15244 1-555): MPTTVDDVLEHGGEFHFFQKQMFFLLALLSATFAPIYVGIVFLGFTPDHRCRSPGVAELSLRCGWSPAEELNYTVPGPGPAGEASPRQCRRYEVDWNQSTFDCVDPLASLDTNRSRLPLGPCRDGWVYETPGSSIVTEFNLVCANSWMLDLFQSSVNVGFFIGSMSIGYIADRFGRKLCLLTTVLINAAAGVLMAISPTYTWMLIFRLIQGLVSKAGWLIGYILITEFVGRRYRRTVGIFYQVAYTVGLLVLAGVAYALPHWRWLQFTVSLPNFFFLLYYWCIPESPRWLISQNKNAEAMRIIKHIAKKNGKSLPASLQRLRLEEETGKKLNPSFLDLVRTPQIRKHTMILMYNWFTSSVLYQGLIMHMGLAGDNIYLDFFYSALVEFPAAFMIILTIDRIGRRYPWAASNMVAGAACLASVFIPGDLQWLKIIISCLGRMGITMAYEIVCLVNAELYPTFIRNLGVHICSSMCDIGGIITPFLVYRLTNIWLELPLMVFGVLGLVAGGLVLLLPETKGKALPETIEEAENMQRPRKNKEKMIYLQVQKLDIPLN
# CYP1A2 = biological target: T2, CYP1A2 (Homo sapiens, UniProt P05177); assay: CYP450 inhibition assay in human liver microsomes, CYP1A2
# T2 construct: tissue Corning 452117; host or cells: human liver microsomes
# T2 sequence (P05177 1-516): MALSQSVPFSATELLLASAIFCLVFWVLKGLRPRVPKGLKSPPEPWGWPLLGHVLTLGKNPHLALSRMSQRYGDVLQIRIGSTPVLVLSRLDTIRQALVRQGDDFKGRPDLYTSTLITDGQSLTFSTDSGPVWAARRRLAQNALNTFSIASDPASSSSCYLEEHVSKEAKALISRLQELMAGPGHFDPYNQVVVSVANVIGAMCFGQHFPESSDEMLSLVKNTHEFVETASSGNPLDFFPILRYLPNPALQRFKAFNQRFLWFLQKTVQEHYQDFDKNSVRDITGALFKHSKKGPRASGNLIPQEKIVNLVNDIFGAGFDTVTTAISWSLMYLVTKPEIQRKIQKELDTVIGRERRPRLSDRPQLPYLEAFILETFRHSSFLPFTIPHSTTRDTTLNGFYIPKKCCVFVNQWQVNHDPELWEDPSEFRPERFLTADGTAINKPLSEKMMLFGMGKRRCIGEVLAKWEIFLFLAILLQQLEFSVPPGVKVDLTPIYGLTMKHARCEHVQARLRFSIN
# Experimental: (§1) To evaluate the reliability and reproducibility of the CYP450 inhibition assay, we measured the inhibitory effects of selected positive control inhibitors of each CYP450 enzyme in human liver microsomes (HLM, Table 1, Figure 2). The potency of inhibition was estimated by observing the alteration in concentration of metabolites of CYP450 substrates (Table 1).
# (§2) Reagents preparation. […] The stock solution of PDQ (10 mM) was prepared with methanol and further diluted to the range of 3 µM to 3 mM with methanol to ensure that the solvent of different PDQ samples contained the same amount (1%) of methanol.
# (§3) The stock solutions of the positive control inhibitors and the probe substrates of CYP450 enzymes were prepared in methanol.
# (§4) CYP450 inhibition assay. […] The assay was conducted in polypropylene 96-well plates (2.2 mL/well, Apricot Designs Inc., Covina, CA, USA).
# The total volume of the reaction is 200 μL. The HLM mixtures (102 μL) containing individual probe substrates (Table 3), KH2PO4 buffer (100 mM, pH 7.4), and either PDQ or the positive control inhibitors (Table 3) were incubated for 10 min at 37 °C in a shaking incubator. Reactions were initiated by adding 98 μL NADPH (final concentration is 1.3 mM NADPH, 3 mM MgCl2 in 100 mM KH2PO4 buffer). The HLM reaction mixtures were shaken at 37 °C for various times (Table 4). The reaction time of CYP3A4 (midazolam), CYP2C19 and CYP2D6 were 3, 20 and 20 min, respectively, while the reactions of other CYP enzymes were terminated after 10 min. The reactions were quenched by adding 200 μL acetonitrile containing 3% formic acid and specific internal standards (Table 4). After shaking at 1000 rpm for 10 min, the reaction mixtures were centrifuged at 4000 rpm for 20 min. Supernatants were diluted with ultrapure water (Table 4) and shaken for 10 min at 1000 rpm. […] The substrates and analytes were analyzed by LC-MS/MS (API4000, Applied Biosystems, Singapore; HPLC, Shimadzu, Japan). […]
# (§5) Data analysis. […] The IC50 was determined by fitting the dependence of the relative remaining activity (y = Vi/V0) to the following three-parameter equation (Equation (1)). […]
# CYP2C19 = biological target: T3, CYP2C19 (Homo sapiens, UniProt P33261); assay: CYP450 inhibition assay in human liver microsomes, CYP2C19; conditions: HLM 0.1 mg/mL; probe S-mephenytoin 20 µM; 20 min
# T3 construct: tissue Corning 452117; host or cells: human liver microsomes
# Experimental: as §1, §2, §3, §4
# The total volume of the reaction is 200 μL. […] The substrates and analytes were analyzed by LC-MS/MS (API4000, Applied Biosystems, Singapore; HPLC, Shimadzu, Japan). […]
# as §5
# T3 sequence (P33261 whole entry): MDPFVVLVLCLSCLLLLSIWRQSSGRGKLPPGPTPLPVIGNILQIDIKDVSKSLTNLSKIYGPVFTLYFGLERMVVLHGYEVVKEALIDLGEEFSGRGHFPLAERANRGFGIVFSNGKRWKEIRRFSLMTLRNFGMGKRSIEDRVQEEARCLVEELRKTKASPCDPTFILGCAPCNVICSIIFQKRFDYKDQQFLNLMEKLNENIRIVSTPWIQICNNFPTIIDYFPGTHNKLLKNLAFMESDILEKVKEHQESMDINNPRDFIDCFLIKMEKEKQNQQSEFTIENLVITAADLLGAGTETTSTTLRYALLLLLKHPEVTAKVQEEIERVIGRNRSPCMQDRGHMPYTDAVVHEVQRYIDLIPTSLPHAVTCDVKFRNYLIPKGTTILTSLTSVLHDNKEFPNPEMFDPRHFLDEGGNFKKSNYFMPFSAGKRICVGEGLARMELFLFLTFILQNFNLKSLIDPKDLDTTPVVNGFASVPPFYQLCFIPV
smiles,measurement,setting,value
"CC(C)(O)[C@@H]1CC[C@@](C)([C@H]2CC[C@]3(C)[C@@H]2[C@H](O)C[C@@H]2[C@@]4(C)CC[C@H](O)C(C)(C)[C@@H]4CC[C@]23C)O1 [PDQ, (20S,24S)-dammar-20,24-epoxy-3β, 12β, 25-triol]",pIC50,hOCT2,< 4.52
same,pIC50,"CYP1A2; HLM 0.1 mg/mL, probe phenacetin 75 µM, 10 min",< 4.00
same,effect on CYP1A2-catalyzed de-ethylation,"CYP1A2; PDQ within the range of 0.03 to 30.0 μM, HLM",activated
same,percentage mean control activity of CYP1A2,"CYP1A2; highest tested dose of PDQ (100 μM), HLM",100.8%
same,pIC50,CYP2C19,6.16

# Reference: publication PMC11173382, “In Vitro Investigations into the Potential Drug Interactions of Pseudoginsenoside DQ Mediated by Cytochrome P450 and Human Drug Transporters” (Molecules, 2024)
